Where a SMILES comes first, the peptide text is derived from it. [ ]: non-standard residue; d: D form. Tle = CC(C)(C)[C@H](N)C(=O)O; Ac6c = NC1(C(=O)O)CCCCC1; Ac5c = NC1(C(=O)O)CCCC1; Sar = CNCC(=O)O
Legend:
Format in all cases: cell-based
[1] = molecular target: T1, human AT1R (Homo sapiens, UniProt P30556); assay: beta-arrestin2 recruitment assay (PathHunter), human AT1R; conditions: for Emax: 1 h, read-out: Span (relative to hAngII)
T1 sequence (P30556 1-359): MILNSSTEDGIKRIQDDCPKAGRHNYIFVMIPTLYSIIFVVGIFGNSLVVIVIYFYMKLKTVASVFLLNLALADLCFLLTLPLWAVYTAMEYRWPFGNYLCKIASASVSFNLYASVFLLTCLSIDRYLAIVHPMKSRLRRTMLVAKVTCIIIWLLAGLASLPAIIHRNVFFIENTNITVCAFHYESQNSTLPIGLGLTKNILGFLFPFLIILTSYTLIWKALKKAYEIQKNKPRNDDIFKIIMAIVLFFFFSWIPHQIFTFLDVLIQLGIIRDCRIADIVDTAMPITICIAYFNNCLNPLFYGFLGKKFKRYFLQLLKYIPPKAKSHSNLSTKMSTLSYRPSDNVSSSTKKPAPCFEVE
Outline: (§1)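 Luminescence, in arbitrary units, read after 60 min room-temperature detection reflects β-arrestin-2 recruitment to human AT1R or rat AT1aR stably expressed in PathHunter HEK293 clones. Cells were exposed to peptides from 1 pM to 100 μM final in HEPES-buffered HBSS for 60 min at 37 °C.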

[2] = molecular target: T2, rat AT1aR (Rattus norvegicus, UniProt P25095); assay: IP1 accumulation assay (IP1 G-protein assay), rat AT1aR; conditions: for Emax: read-out: Span (relative to hAngII)
T2 sequence (P25095 1-359): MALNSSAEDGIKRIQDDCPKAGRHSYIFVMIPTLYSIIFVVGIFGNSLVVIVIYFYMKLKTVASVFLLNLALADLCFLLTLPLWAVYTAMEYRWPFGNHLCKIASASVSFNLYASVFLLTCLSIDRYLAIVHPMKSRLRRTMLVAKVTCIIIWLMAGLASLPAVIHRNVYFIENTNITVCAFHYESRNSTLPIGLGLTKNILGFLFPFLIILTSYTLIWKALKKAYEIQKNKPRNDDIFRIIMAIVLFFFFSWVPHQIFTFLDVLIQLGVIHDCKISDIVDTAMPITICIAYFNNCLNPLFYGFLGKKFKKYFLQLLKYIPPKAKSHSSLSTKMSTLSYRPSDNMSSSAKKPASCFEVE
Protocol: (§2) A secondary measure of G protein coupling efficacy was also performed. IP3 is generated by activation of phospholipase C by Gα-q. IP3 is degraded to IP1, which can be forced to accumulate in cells by blocking degradation with lithium chloride. Thus we measured accumulation of IP1 to determine ligand efficacy for G protein activation.
(§3) IP1 accumulation generated by human and rat angiotensin 2 type 1 receptor (human AT1R and rat AT1aR, respectively) was measured with IP-One Tb kits purchased from Cisbio and used per the manufacturer's instructions. Clonal stably transfected cell lines expressing human AT1TR or rat AT1aR were used for all experiments.
(§4) For assays, 4,000-8,000 cells were seeded per well in 384-well small-volume microplates “HiBase” small-volume plate in volumes of 20 uL and allowed to grow overnight at 37° C. in 5% CO2. Cell growth media was then replaced with stimulation buffer supplied by Cisbio containing 50 mM lithium chloride. […] For agonist detection, peptides were then further diluted in stimulation buffer to add peptide to the cells to reach final concentrations ranging from 100 uM to 1 pM. Following addition of peptides, cells were incubated at 37° C. in 5% CO2 for 30 minutes and then lysed with 4 uL of pre-mixed HTRF IP-One reagents diluted per manufacturer's instructions (Cisbio). Microplates were incubated for 60-90 minutes at room temperature and then time-resolved fluorescence intensities were measured using a PHERAstar Plus microplate reader from BMG Labtech. IP1 accumulation was measured as change in ratio of time-resolved fluorescent intensities measured at 665 nm and 620 nm.

[3] = molecular target: T2, rat AT1aR; assay: beta-arrestin2 recruitment assay (PathHunter), rat AT1aR; conditions: for Emax: 1 h, read-out: Span (relative to hAngII)
Outline: as §1

[4] = molecular target: T1, human AT1R; assay: IP1 accumulation assay (IP1 G-protein assay), human AT1R; conditions: for Emax: read-out: Span (relative to hAngII)
Protocol: as §2, §3, §4

## CNCC(=O)N[C@@H](CCCNC(=N)N)C(=O)N[C@H](C(=O)N[C@@H](Cc1ccc(O)cc1)C(=O)NC1(C(=O)N[C@@H](Cc2c[nH]cn2)C(=O)N2CCC[C@H]2C(=O)N[C@@H](Cc2ccc(O)cc2)C(=O)O)CCCCC1)C(C)C [SEQ ID NO: 55, Sar-Arg-Val-Tyr-cyHex-His-Pro-Tyr] (H-[Sar]RVY[Ac6c]HPY-OH)
[1]
  Emax: < 101%
[1]; read-out: EC50
  EC50: > 3.2 nM
[1]; read-out: pEC50 (converted)
  EC50: > 3.16 nM
[2]; read-out: EC50
  EC50: > 0.6 nM
[2]
  Emax: < 104%
[2]; read-out: pEC50 (converted)
  EC50: > 0.631 nM
[3]
  Emax: < 105%
[3]; read-out: EC50
  EC50: > 3.2 nM
[3]; read-out: pEC50 (converted)
  EC50: > 3.16 nM
[4]; read-out: EC50
  EC50: > 1.3 nM
[4]
  Emax: < 103%
[4]; read-out: pEC50 (converted)
  EC50: > 0.631 nM

## CNCC(=O)N[C@@H](CCCNC(=N)N)C(=O)N[C@H](C(=O)N[C@@H](Cc1ccc(O)cc1)C(=O)N1CCC[C@H]1C(=O)N[C@@H](Cc1c[nH]cn1)C(=O)N1CCC[C@H]1C(=O)N[C@H](C(=O)O)[C@@H](C)O)C(C)C [SEQ ID NO: 7, Sar-Arg-Val-Tyr-Pro-His-Pro-Thr] (H-[Sar]RVYPHPT-OH)
[1]
  Emax: < 101%
[1]; read-out: EC50
  EC50: > 3.2 nM
[1]; read-out: pEC50 (converted)
  EC50: > 3.16 nM
[2]; read-out: EC50
  EC50: > 0.6 nM
[2]; read-out: pEC50 (converted)
  EC50: > 0.631 nM
[3]
  Emax: < 105%
[3]; read-out: EC50
  EC50: > 3.2 nM
[3]; read-out: pEC50 (converted)
  EC50: > 3.16 nM
[4]; read-out: EC50
  EC50: > 10000 nM
[4]; read-out: pEC50 (converted)
  EC50: > 0.631 nM

## CC[C@H](C)[C@@H](C(=O)N[C@@H](Cc1c[nH]cn1)C(=O)N1CCC[C@H]1C(=O)N[C@@H](C)C(=O)O)N(C)C(=O)[C@H](Cc1ccc(O)cc1)NC(=O)[C@@H](NC(=O)[C@H](CCCNC(=N)N)NC(=O)CNC)C(C)C [SEQ ID NO: 58, Sar-Arg-Val-Tyr-NMeIle-His-Pro-Ala]
[1]
  Emax: < 101%
[1]; read-out: EC50
  EC50: > 3.2 nM
[1]; read-out: pEC50 (converted)
  EC50: > 3.16 nM
[2]; read-out: EC50
  EC50: > 0.6 nM
[2]
  Emax: < 104%
[2]; read-out: pEC50 (converted)
  EC50: > 0.631 nM
[3]
  Emax: < 105%
[3]; read-out: EC50
  EC50: > 3.2 nM
[3]; read-out: pEC50 (converted)
  EC50: > 3.16 nM
[4]
  EC50 (nM): Inactive
  pEC50: Inactive

## CNCC(=O)N[C@@H](CCCNC(=N)N)C(=O)N[C@H](C(=O)N[C@@H](Cc1ccc(O)cc1)C(=O)NC1(C(=O)N[C@@H](Cc2c[nH]cn2)C(=O)N2CCC[C@H]2C(=O)N[C@H](C(=O)O)C(C)(C)C)CCCCC1)C(C)C [SEQ ID NO: 56, Sar-Arg-Val-Tyr-cyHex-His-Pro-AA02] (H-[Sar]RVY[Ac6c]HP[Tle]-OH)
[1]
  Emax: < 101%
[1]; read-out: EC50
  EC50: > 3.2 nM
[1]; read-out: pEC50 (converted)
  EC50: > 3.16 nM
[2]; read-out: EC50
  EC50: > 0.6 nM
[2]
  Emax: < 104%
[2]; read-out: pEC50 (converted)
  EC50: > 0.631 nM
[3]
  Emax: < 105%
[3]; read-out: EC50
  EC50: > 3.2 nM
[3]; read-out: pEC50 (converted)
  EC50: > 3.16 nM
[4]; read-out: EC50
  EC50: > 1.3 nM
[4]
  Emax: < 103%
[4]; read-out: pEC50 (converted)
  EC50: > 0.631 nM

## CNCC(=O)N[C@@H](CCCNC(=N)N)C(=O)N[C@H](C(=O)N[C@@H](Cc1ccc(O)cc1)C(=O)N1CCC[C@H]1C(=O)N[C@@H](Cc1c[nH]cn1)C(=O)N1CCC[C@H]1C(=O)N[C@@H](CC(C)C)C(=O)O)C(C)C [SEQ ID NO: 5, Sar-Arg-Val-Tyr-Pro-His-Pro-Leu] (H-[Sar]RVYPHPL-OH; N-terminus and C-terminus assumed)
[1]
  Emax: < 101%
[2]
  Emax: < 104%
[3]
  Emax: < 105%
[4]
  Emax: < 103%

## CNCC(=O)N[C@@H](CCCNC(=N)N)C(=O)N[C@H](C(=O)N[C@@H](Cc1ccc(O)cc1)C(=O)NC1(C(=O)N[C@@H](Cc2c[nH]cn2)C(=O)N2CCC[C@H]2C(=O)N[C@H](C(=O)O)C(C)C)CCCCC1)C(C)C [SEQ ID NO: 13, Sar-Arg-Val-Tyr-cyHex-His-Pro-Val] (H-[Sar]RVY[Ac6c]HPV-OH)
[1]
  Emax: 103%
[1]; read-out: EC50
  EC50: > 3.2 nM
[1]; read-out: pEC50 (converted)
  EC50: > 3.16 nM
[2]; read-out: EC50
  EC50: > 0.6 nM
[2]; read-out: pEC50 (converted)
  EC50: > 0.631 nM
[3]
  Emax: < 105%
[3]; read-out: EC50
  EC50: > 3.2 nM
[3]; read-out: pEC50 (converted)
  EC50: > 3.16 nM
[4]; read-out: EC50
  EC50: > 1.3 nM
[4]; read-out: pEC50 (converted)
  EC50: > 0.631 nM

## CNCC(=O)N[C@@H](CCCNC(=N)N)C(=O)N[C@H](C(=O)N[C@@H](Cc1ccc(O)cc1)C(=O)NC1(C(=O)N[C@@H](Cc2c[nH]cn2)C(=O)N2CCC[C@H]2C(=O)N[C@@H](Cc2ccccc2)C(=O)O)CCCC1)C(C)C [SEQ ID NO: 24, Sar-Arg-Val-Tyr-cyPen-His-Pro-Phe] (H-[Sar]RVY[Ac5c]HPF-OH)
[1]
  Emax: > 101%
[1]; read-out: EC50
  EC50: > 3.2 nM
[1]; read-out: pEC50 (converted)
  EC50: > 3.16 nM
[2]; read-out: EC50
  EC50: > 0.6 nM
[2]
  Emax: < 104%
[2]; read-out: pEC50 (converted)
  EC50: > 0.631 nM
[3]
  Emax: < 105%
[3]; read-out: EC50
  EC50: > 3.2 nM
[3]; read-out: pEC50 (converted)
  EC50: > 3.16 nM
[4]; read-out: EC50
  EC50: < 1.3 nM
[4]
  Emax: > 103%
[4]; read-out: pEC50 (converted)
  EC50: > 0.631 nM

## CC[C@H](C)[C@H](NC(=O)[C@@H]1CCCN1C(=O)[C@H](Cc1c[nH]cn1)NC(=O)C1(NC(=O)[C@H](Cc2ccc(O)cc2)NC(=O)[C@@H](NC(=O)[C@H](CCCNC(=N)N)NC(=O)CNC)C(C)C)CCCC1)C(=O)O [SEQ ID NO: 18, Sar-Arg-Val-Tyr-cyPen-His-Pro-Ile] (H-[Sar]RVY[Ac5c]HPI-OH)
[1]
  Emax: < 101%
[2]
  Emax: < 104%
[3]
  Emax: < 105%
[4]
  Emax: < 103%

## CNCC(=O)N[C@@H](CCCNC(=N)N)C(=O)N[C@H](C(=O)N[C@@H](Cc1ccc(O)cc1)C(=O)NC1(C(=O)N[C@@H](Cc2c[nH]cn2)C(=O)N2CCC[C@H]2C(=O)N[C@@H](CO)C(=O)O)CCCCC1)C(C)C [SEQ ID NO: 15, Sar-Arg-Val-Tyr-cyHex-His-Pro-Ser] (H-[Sar]RVY[Ac6c]HPS-OH)
[1]
  Emax: < 101%
[1]; read-out: EC50
  EC50: > 3.2 nM
[1]; read-out: pEC50 (converted)
  EC50: > 3.16 nM
[2]; read-out: EC50
  EC50: > 0.6 nM
[2]
  Emax: < 104%
[2]; read-out: pEC50 (converted)
  EC50: > 0.631 nM
[3]
  Emax: < 105%
[3]; read-out: EC50
  EC50: > 3.2 nM
[3]; read-out: pEC50 (converted)
  EC50: > 3.16 nM
[4]; read-out: EC50
  EC50: > 1.3 nM
[4]; read-out: pEC50 (converted)
  EC50: > 0.631 nM

## CNCC(=O)N[C@@H](CCCNC(=N)N)C(=O)N[C@H](C(=O)N[C@@H](Cc1ccc(O)cc1)C(=O)NC1(C(=O)N[C@@H](Cc2c[nH]cn2)C(=O)N2CCC[C@H]2C(=O)N2CCC[C@H]2C(=O)O)CCCCC1)C(C)C [SEQ ID NO: 39, Sar-Arg-Val-Tyr-cyHex-His-Pro-Pro] (H-[Sar]RVY[Ac6c]HPP-OH)
[1]
  Emax: < 101%
[1]; read-out: EC50
  EC50: > 3.2 nM
[1]; read-out: pEC50 (converted)
  EC50: > 3.16 nM
[2]; read-out: EC50
  EC50: > 0.6 nM
[2]
  Emax: < 104%
[2]; read-out: pEC50 (converted)
  EC50: > 0.631 nM
[3]
  Emax: < 105%
[3]; read-out: EC50
  EC50: > 3.2 nM
[3]; read-out: pEC50 (converted)
  EC50: > 3.16 nM
[4]; read-out: EC50
  EC50: > 1.3 nM
[4]
  Emax: < 103%
[4]; read-out: pEC50 (converted)
  EC50: > 0.631 nM

Reference: patent US8946142B2, “Beta-arrestin effectors and compositions and methods of use thereof” (Trevena, Inc., priority 2012, dated 2015)
